Assay [1] has as its system Mycobacterium tuberculosis. The experiment in a line: Concentration to inhibit of the growth of Mycobacterium tuberculosis at 12.5 ug/ml. The assay is classed as functional.
Assay [2] deals with Mycobacterium tuberculosis. Put plainly: Minimum inhibitory concentration against Mycobacterium tuberculosis. The assay is classed as functional.

≈ marks a conversion by molar mass, not a printed value.

As to `CCC(C)C(=O)N[C@H](Cc1ccccc1)C(=O)N[C@@H]1C(=O)N[C@H](CC(C)C)C(=O)N[C@H](Cc2ccccc2)C(=O)N[C@H](CC(C)C)C(=O)N[C@@H]([C@@H](C)O)C(=O)N[C@@H](CO)C(=O)O[C@@H]1C` (some centres undefined), the inhibition at 12.5 µg/mL in assay [1] was determined as 83%. The MIC in assay [2] is 64 µg/mL (≈ 71.6 µM). As to `CCCCCC(=O)N[C@H](Cc1ccccc1)C(=O)N[C@@H]1C(=O)N[C@H](CC(C)C)C(=O)N[C@H](Cc2ccccc2)C(=O)N[C@H](CC(C)C)C(=O)N[C@@H]([C@@H](C)O)C(=O)N[C@@H](CO)C(=O)O[C@@H]1C`, the MIC in assay [2] was determined as 32 µg/mL (≈ 35.2 µM). As for `CC[C@H](C)C(=O)N[C@H](Cc1ccccc1)C(=O)N[C@@H]1C(=O)N[C@H](CC(C)C)C(=O)N[C@H](Cc2ccccc2)C(=O)N[C@H](CC(C)C)C(=O)N[C@@H]([C@@H](C)O)C(=O)N[C@@H](CO)C(=O)O[C@@H]1C`, in assay [2], the MIC worked out at 64 µg/mL (≈ 71.6 µM). This MIC lies about 2-fold higher than the previous one.

These data come from ChEMBL document CHEMBL1142691, “Solid-phase total synthesis of kahalalide A and related analogues” (2005).
